Measured values as given in patent publication US20140127159A1, “HCV Combination Therapy” (Stella ApS, priority 2011, published 2014).
Several values for one entry are separate records, joined by “and”; a condition that tells them apart may be missing. Identical values can stand only once. Entries after “also recorded” stand apart in the source; their conditions may differ. Like-named read-outs stand apart in the source and are kept apart here.

Columns and labels:
[1] = system: HCV genotype 1b replicon NS3 A156T; assay: Transient transfection replicon assay in Huh 7 cells, NS3 A156T; assay type: cell-based; details: EC50 mutant / EC50 wild-type; mean of two experiments
Procedure: (§2) Huh 7 cells were transfected with either the wild-type or the mutant RNA constructs by electroporation. Luciferase activity was measured 72 hours after compound treatment and EC50 values determined from dose-response curves. Fold resistance was expressed as the ratio of the EC50 for mutant HCV replicon to the EC50 for wild-type HCV replicon.
(§3) Huh 7 cells were transfected with either the wild type or the mutant RNA constructs by electroporation. Luciferase activity was measured 72 hours after compound treatment and EC50 values determined from dose-response curves. Fold resistance was expressed as the ratio of the EC50 for mutant HCV replicon to the EC50 for wild-type HCV replicon. Results are expressed as the mean of two individual experiments.

[2] = system: HCV genotype 1b replicon NS3 R155K; assay: Transient transfection replicon assay in Huh 7 cells, NS3 R155K; assay type: cell-based; details: EC50 mutant / EC50 wild-type; mean of two experiments
Procedure: as §2, §3

[3] = system: HCV genotype 1b replicon NS5B S282T; assay: Transient transfection replicon assay in Huh 7 cells, NS5B S282T; assay type: cell-based; details: EC50 mutant / EC50 wild-type; mean of two experiments
Procedure: as §2, §3

[4] = system: HCV genotype 1b replicon NS5B M423I; assay: Transient transfection replicon assay in Huh 7 cells, NS5B M423I; assay type: cell-based; details: EC50 mutant / EC50 wild-type; mean of two experiments
Procedure: as §2, §3

[5] = system: HCV genotype 1b replicon NS5A Y93H; assay: Transient transfection replicon assay in Huh 7 cells, NS5A Y93H; assay type: cell-based; details: EC50 mutant / EC50 wild-type; mean of two experiments
[6] = system: Huh-luc/neo-ET HCV genotype Ib replicon cells; assay type: cell-based; details: 28 days culture under G418 selective pressure, crystal violet
Procedure: Cell culture and Assay setup: The reporter cell line Huh-luc/neo-ET was obtained and prepare as described previously. Cells were plated into 10 cm tissue culture dishes at a density of 3×10^5 cells per plate in culture medium containing 250 μg/ml G418 and incubated for 24 hours at 37° C. in an environment of 5% CO2. Following the 24 hour incubation, dilutions of SPC3649, SPC4729, or telaprevir were prepared in cell culture medium (as above) with 750 μg/ml G418. Each of the dilutions was added to duplicate plates and the plates were incubated at 37° C. in an environment of 5% CO^2. Two additional plates received cell culture medium with 750 μg/ml G418 as a no-treatment control. […] The final concentration of SPC4729 was 10.0 μM. […] Following 28 days of passage, one set of dishes was stained with crystal violet and the other set of plates was utilized for expansion and establishment of resistant cell culture stocks.
Huh-luc/neo-ET HCY genotype Ib replicon cells were cultured under selective pressure in the presence of 750 μg/mL G4 I8 with and without four independent fixed concentrations of SPC3649 anti-miR oligonucleotide, or telaprevir, or one concentration of scrambled oligonucleotide SPC4729 for 28 days in tissue culture plates. Duplicate tissue culture dishes were established and maintained for each culture condition. […]

[7] = system: HCV genotype 1; assay: Phase 2a clinical trial, miravirsen monotherapy; assay type: in vivo, patients; details: for mean of the maximum HCV RNA decline from baseline: 5 weekly doses subcutaneously over 29 days
Procedure: Thirty-six treatment-naïve chronic HCV genotype 1 infected patients were enrolled into 3 sequential dosing cohorts and received 5 weekly doses of miravirsen 3, 5, or 7 mg/kg (n=27) or placebo (n=9) subcutaneously over 29 days and were followed up until week 18.

[8] = system: all HCV genotypes; assay: In vitro activity against HCV genotypes; assay type: cell-based
[9] = system: HCV genotype Ib replicon in Huh-luc/neoET cells; assay type: cell-based; details: for Efficacy, Antagonism vol: in combination with miravirsen (SPC3649), 95% confidence interval, median (≧3 experiments) or individual values
Procedure: (§1) The anti-viral efficacy and cellular toxicity of non-transfected antimiR oligonucleotide in combination with approved and experimental anti-HCV therapeutics (boceprevir or telepravir, was determined in the reporter cell line Huh-luc/neo-ET. This cell line harbors the persistently replicating I389luc-ubi-neo/NS3-3′/ET replicon containing the firefly luciferase gene-ubiquitin-neomycin phosphotransferase fusion protein and EMCV IRES driven NS3-5B HCV coding sequences containing the ET tissue culture adaptive mutations (E1202G, T1208I, and K1846T). Eight dilutions of non-transfected antimiR oligonucleotide (bracketing the calculated EC50) were evaluated in triplicate on duplicate sets of three plates with five dilutions of each of the control compounds (bracketing the calculated EC50). One set of plates was used for the determination of cellular toxicity and the other set of plates is used for the determination of anti-viral efficacy. The efficacy and toxicity results was quantified with firefly luciferase activity and XTT dye reduction, respectively, and the results of the assay is imported into the Prichard and Shipman MacSynergy II software program. The MacSynery II analysis includes calculation of the dose response of the two (or more) compounds when used alone followed by calculation of the expected additive level of antiviral inhibition or toxicity when the compounds are used together based on the individual dose response curves. The expected level of activity at each of the concentration data points is compared to the experimentally determined antiviral activity in the assay. The expected activity was subtracted from the realized activity, yielding a negative, zero or positive value.
This example was based on an in vitro evaluation of SPC3649 (miravirsen) in combination with anti-HCV drugs and experimental compounds. […] The combination antiviral assays were performed using the reporter cell line Huh-luc/neo-ET, which contains a bicistronic HCV genotype Ib replicon. Combination data were analyzed using MacSynergy II software at the 95%, confidence interval. The in vitro combination assays were designed to define the antiviral interaction of the two compounds and to determine if their interaction was synergistic or antagonistic.
The reporter cell line Huh-luc/neo-ET was obtained from Dr. Ralf Bartenschlager (Department of Molecular Virology, Hygiene Institute, University of Heidelberg, Germany) by ImQuest BioSciences. This cell line harbors the persistently replicating 1389luc-ubi-neo/NS3-3′IET replicon containing the firefly luciferase gene-ubiquitinneomycin phosphotransferase fusion protein and EMCV IRES driven NS3-5B HCV coding sequences containing the ET tissue culture adaptive mutations (E 1202G, T12081, and KI846T). […]

[10] = system: Huh-luc/neo-ET
Procedure: as §1
The reporter cell line Huh-luc/neo-ET was obtained from Dr. Ralf Bartenschlager (Department of Molecular Virology, Hygiene Institute, University of Heidelberg, Germany) by ImQuest BioSciences. This cell line harbors the persistently replicating 1389luc-ubi-neo/NS3-3′IET replicon containing the firefly luciferase gene-ubiquitinneomycin phosphotransferase fusion protein and EMCV IRES driven NS3-5B HCV coding sequences containing the ET tissue culture adaptive mutations (E 1202G, T12081, and KI846T). A stock culture of the Huh-luc/neo-ET was expanded by culture in DMEM supplemented with 10% FBS, 2 mM glutamine, penicillin (100 IU/mL)/streptomycin (100 f.Ig/mL) and IX nonessential amino acids plus I mg/ml G418. Prior to plating, the cells were split 1:4 and cultured for two passages in the same medium plus 250 f.Ig/mL G418. The cells were treated with trypsin and enumerated by staining with trypan blue and seeded into 96-well tissue culture plates at a cell culture density 5.0×10^3 cells per well in a volume of 85 f.IL per well and incubated at […] in an environment of 5% CO2 for 24 hours. Six plates were established for the determination of combination efficacy (EC50) and cytotoxicity (TC50) for each of the compound combinations (three plates each for efficacy and toxicity). […] Following incubation, the plates were assessed for anti-HCV activity by measurement of luciferase reporter activity and cellular cytotoxicity by XTT staining.

| Compound | Fold Resistance NS3 A156T [1] [fold] | Fold Resistance NS3 R155K [2] [fold] | Fold Resistance NS5B S282T [3] [fold] | Fold Resistance NS5B M423I [4] [fold] | Fold Resistance NS5A Y93H [5] [fold] | Efficacy, Antagonism vol [9] | Cytotoxicity, Synergy vol ([10]; human) | also measured |
| --- | --- | --- | --- | --- | --- | --- | --- | --- |
| 5′-^mCs^ocsAs^otstsGs^oTs^ocsas^mCs^oas^mCs^ots^mCs^omC^o-3′ (CCATTGTCACACTCC; all phosphorothioate, sugars by position and methylation of C not given here; further chemistry not fully specified) [miravirsen] | 1.0 | 1.2 | 1.9 | 1.7 | 0.9 |  |  | distinct individual resistant clonal populations ([6]; listed as SPC3649): failed to produce distinct individual resistant clonal populations; also recorded: distinct individual resistant clonal populations were not produced; mean of the maximum HCV RNA decline from baseline ([7]; 3 mg/kg): 1.2 log10 IU/mL; mean of the maximum HCV RNA decline from baseline ([7]; 5 mg/kg): 2.9 log10 IU/mL; mean of the maximum HCV RNA decline from baseline ([7]; 7 mg/kg): 3.0 log10 IU/mL; safety and tolerability, adverse events ([7]; 3, 5 or 7 mg/kg): no dose-limiting adverse events; also recorded: safe, well-tolerated; escape mutations / emergence of viral resistance ([7]; HCV genome miR-122 binding sites): no escape mutations were observed; also recorded: not seen; efficacy against HCV genotypes in vitro [8]: effective against all HCV genotypes in vitro |
| CCC[C@H](NC(=O)[C@@H]1[C@H]2CCC[C@H]2CN1C(=O)[C@@H](NC(=O)[C@@H](NC(=O)c1cnccn1)C1CCCCC1)C(C)(C)C)C(=O)C(=O)NC1CC1 [Telaprevir, (1S,3aR,6aS)-2-[(2S)-2-[[(2S)-2-Cyclohexyl-2-(pyrazine-2-carbonylamino)acetyl]amino]-3,3-dimethylbutanoyl]-N-[(3S)-1-(cyclopropylamino)-1,2-dioxohexan-3-yl]-3,3a,4,5,6,6a-hexahydro-1H-cyclopenta[c]pyrrole-1-carboxamide] |  | 4.6 | 1.0 |  |  | 0/−3.2 (±3.08/6.89) μM^2% |  | Efficacy, Antag Vol ([9]; in combination with ribavirin, 95% confidence level, individual values): 37.5/22.6; μM^2%; Cytotoxicity, Antagonism vol ([10]; in combination with miravirsen (SPC3649), 95% confidence interval): 0/−5.05 μM^2%; Cytotoxicity, Antag Vol ([10]; in combination with ribavirin, 95% confidence level): 0.00/−50.9 μM^2%; distinct individual resistant clonal populations [6]: production of distinct individual resistant clonal populations |
| C[C@@]1(O)[C@H](O)[C@@H](CO)O[C@H]1n1ccc(N)nc1=O [2′-C-Methylcytidine] | 0.9 | 0.8 |  | 1.0 | 1.0 |  |  |  |
| CC(C)(C)C#Cc1cc(N(C(=O)[C@H]2CC[C@H](C)CC2)[C@H]2CC[C@H](O)CC2)c(C(=O)O)s1 [VX-222] |  |  |  | 4.4 |  | −34.44 μM^2% | 0/−28.6; 0/0 μM^2% |  |
| COC(=O)N[C@H](C(=O)N1CCC[C@H]1c1nc(-c2ccc(-c3ccc(-c4c[nH]c([C@@H]5CCCN5C(=O)[C@@H](NC(=O)OC)C(C)C)n4)cc3)cc2)c[nH]1)C(C)C [BMS 790052, Carbamic acid, N,N′-[[1,1′-biphenyl]-4,4′-diylbis[1H-imidazole-5,2-diyl-(2S)-2,1-pyrrolidinediyl[(1S)-1-(1-methylethyl)-2-oxo-2,1-ethanediyl]]]bis-, C,C′-dimethyl ester] |  |  |  |  | 29.9 | −24.5 μM^2% and −0.06 μM^2% | 0/−21.9 μM^2% | Cytotoxicity, Antagonism vol ([10]; human): 0/−21.9 μM^2% |
